Assay results as given in ChEMBL document CHEMBL1201862, “PubChem BioAssay data set” (2004).
Values belong to the molecule of their own block, whether it stands above or below them. The source made the active and inactive calls.

Experiments:
[1] = target: G-protein coupled receptor 55 (Homo sapiens, UniProt Q9Y2T6); test: GPR55 antagonists, SAR follow-up, counter-screen for GPR35 antagonist project, imaging, image-based (AID 2397); assay type: functional
[2] = target: T1, Hexokinase-1 (Homo sapiens, UniProt P19367); test: SAR analysis of small molecule inhibitors of hexokinase domain containing I (HKDC1) in the hexokinase 1 selectivity assay. [Related pubchem assays (depositor defined):AID493160, AID493190]; assay type: functional
T1 sequence (P19367 whole entry): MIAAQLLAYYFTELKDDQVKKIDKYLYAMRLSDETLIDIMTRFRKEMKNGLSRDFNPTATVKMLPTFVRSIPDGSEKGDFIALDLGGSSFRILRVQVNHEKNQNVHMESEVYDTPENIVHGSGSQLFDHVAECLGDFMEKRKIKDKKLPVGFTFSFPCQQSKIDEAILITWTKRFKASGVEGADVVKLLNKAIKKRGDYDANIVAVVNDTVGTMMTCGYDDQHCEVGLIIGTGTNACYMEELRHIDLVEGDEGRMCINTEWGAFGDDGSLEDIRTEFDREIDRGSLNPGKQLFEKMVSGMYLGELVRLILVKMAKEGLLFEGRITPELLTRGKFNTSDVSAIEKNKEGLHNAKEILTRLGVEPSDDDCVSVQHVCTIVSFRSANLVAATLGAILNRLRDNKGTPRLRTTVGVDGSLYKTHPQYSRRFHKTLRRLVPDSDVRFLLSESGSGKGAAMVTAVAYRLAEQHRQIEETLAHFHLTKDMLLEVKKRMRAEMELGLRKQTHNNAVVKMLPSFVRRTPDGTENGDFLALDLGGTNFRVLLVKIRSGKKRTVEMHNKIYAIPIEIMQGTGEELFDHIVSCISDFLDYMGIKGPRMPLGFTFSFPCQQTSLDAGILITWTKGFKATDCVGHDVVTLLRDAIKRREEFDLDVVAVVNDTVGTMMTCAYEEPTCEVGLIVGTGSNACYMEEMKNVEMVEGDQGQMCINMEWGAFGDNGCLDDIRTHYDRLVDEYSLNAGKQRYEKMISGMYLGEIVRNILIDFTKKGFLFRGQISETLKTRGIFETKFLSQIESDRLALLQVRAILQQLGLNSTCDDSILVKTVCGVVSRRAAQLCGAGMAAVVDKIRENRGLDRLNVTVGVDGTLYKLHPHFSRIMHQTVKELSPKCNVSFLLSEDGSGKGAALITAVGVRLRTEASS

[3] = target: T2, Hexokinase HKDC1 (Homo sapiens, UniProt Q2TB90); test: SAR analysis of small molecule inhibitors of hexokinase domain containing I (HKDC1). [Related pubchem assays (depositor defined):AID493160, AID493190]; assay type: functional
T2 sequence (Q2TB90 whole entry): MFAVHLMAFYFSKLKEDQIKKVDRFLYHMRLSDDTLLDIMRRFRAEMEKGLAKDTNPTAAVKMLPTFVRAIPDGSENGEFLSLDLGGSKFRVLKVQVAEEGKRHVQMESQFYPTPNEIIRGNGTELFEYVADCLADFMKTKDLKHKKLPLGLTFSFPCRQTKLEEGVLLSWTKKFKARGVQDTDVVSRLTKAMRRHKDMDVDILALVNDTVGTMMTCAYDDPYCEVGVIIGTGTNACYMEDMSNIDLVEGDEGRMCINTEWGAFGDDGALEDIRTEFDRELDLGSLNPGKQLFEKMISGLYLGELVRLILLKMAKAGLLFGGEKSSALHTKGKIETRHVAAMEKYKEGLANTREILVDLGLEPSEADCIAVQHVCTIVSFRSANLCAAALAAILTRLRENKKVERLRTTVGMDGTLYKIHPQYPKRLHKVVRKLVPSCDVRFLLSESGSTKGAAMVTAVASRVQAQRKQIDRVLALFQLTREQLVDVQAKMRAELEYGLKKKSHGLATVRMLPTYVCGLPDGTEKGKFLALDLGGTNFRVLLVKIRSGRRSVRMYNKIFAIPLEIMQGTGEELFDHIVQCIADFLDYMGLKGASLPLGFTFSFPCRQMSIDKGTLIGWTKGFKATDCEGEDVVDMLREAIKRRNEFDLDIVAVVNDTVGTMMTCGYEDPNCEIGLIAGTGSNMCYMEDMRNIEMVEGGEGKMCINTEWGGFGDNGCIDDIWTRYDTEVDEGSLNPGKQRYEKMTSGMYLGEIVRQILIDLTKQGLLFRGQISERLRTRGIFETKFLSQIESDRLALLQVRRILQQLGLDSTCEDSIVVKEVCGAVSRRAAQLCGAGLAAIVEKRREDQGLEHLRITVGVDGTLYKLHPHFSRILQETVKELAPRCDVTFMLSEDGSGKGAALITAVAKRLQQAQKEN

[4] = target: T2, Hexokinase HKDC1; test: HKDC1 hexokinase inhibitors, SAR follow-up, biochemical, set 2 (AID 588355); assay type: functional
[5] = target: T1, Hexokinase-1; test: HK1 enzyme inhibition by HKDC1 hits, SAR follow-up, selectivity assay for HKDC1 inhibitor project, biochemical, set 2, resazurin fluorescence coupled readout (AID 588356); assay type: functional
[6] = target: Intestinal-type alkaline phosphatase (Mus musculus, UniProt P24822); test: PubChem AID 488875; assay type: functional
Sequence of Intestinal-type alkaline phosphatase (Mus musculus, UniProt P24822) (P24822 whole entry): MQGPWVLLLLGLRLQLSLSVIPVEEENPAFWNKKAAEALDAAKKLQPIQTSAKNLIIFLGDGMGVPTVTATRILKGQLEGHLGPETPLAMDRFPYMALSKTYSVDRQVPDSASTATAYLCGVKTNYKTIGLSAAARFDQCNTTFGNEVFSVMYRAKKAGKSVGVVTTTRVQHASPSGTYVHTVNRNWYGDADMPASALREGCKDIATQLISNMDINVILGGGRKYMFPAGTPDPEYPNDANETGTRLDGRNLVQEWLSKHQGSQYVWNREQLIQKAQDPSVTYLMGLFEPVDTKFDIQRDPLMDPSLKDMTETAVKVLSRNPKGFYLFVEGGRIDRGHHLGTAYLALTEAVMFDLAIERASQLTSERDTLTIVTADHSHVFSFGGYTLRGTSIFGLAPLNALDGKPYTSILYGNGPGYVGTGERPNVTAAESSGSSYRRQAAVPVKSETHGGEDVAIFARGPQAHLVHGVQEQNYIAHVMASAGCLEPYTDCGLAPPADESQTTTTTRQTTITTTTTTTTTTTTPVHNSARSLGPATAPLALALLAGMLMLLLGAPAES

[7] = target: T3, Alkaline phosphatase, tissue-nonspecific isozyme (Homo sapiens, UniProt P05186); test: TNAP enzyme activators, dose response, selectivity assay for human IAP activator project, biochemical, TNAP isozyme, human IAP uHTS hits (AID 488886); assay type: functional;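 also: potency of compounds raising TNAP activity as a selectivity check on IAP activators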
T3 sequence (P05186 whole entry): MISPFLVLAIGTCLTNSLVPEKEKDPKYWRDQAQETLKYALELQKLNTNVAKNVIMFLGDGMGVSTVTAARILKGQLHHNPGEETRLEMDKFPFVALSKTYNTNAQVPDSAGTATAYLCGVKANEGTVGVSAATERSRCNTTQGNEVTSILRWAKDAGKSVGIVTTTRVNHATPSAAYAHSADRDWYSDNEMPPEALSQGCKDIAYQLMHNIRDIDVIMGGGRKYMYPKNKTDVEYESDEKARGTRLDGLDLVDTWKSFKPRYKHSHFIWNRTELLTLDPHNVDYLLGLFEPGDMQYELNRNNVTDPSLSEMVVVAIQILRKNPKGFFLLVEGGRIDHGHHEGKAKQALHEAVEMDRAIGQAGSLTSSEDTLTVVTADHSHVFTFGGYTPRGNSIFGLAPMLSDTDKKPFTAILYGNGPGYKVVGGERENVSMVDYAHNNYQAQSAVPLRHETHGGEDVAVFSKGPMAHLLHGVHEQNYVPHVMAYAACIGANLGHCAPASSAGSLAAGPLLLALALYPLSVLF

[8] = target: T4, Intestinal-type alkaline phosphatase (Homo sapiens, UniProt P09923); test: human IAP activators, dose response, biochemical, luminescent, uHTS hits, set 2 (AID 488817); assay type: functional;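 also: potency of activators that raise enzyme activity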
T4 sequence (P09923 whole entry): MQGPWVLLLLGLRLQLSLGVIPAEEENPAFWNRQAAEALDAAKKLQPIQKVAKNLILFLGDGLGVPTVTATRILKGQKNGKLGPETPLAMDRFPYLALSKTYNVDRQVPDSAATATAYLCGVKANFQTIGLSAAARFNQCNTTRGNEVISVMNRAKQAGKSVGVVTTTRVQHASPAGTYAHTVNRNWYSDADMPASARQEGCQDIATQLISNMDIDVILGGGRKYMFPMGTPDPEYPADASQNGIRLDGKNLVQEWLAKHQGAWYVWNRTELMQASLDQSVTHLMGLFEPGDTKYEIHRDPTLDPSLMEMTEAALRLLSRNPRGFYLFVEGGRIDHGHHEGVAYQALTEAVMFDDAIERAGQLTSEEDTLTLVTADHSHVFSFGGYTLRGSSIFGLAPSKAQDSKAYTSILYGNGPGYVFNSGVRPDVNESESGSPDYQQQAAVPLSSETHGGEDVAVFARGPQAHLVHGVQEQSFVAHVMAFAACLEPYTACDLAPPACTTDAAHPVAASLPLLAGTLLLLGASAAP

[9] = target: T4, Intestinal-type alkaline phosphatase; test: human intestinal alkaline phosphatase activators, dose response, biochemical, luminescence, uHTS hits (AID 463120); assay type: functional
[10] = target: T5, Cytochrome P450 1A2 (Homo sapiens, UniProt P05177);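 also: PubChem cytochrome P450 panel assay, CYP1A2 panel member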
T5 sequence (P05177 whole entry): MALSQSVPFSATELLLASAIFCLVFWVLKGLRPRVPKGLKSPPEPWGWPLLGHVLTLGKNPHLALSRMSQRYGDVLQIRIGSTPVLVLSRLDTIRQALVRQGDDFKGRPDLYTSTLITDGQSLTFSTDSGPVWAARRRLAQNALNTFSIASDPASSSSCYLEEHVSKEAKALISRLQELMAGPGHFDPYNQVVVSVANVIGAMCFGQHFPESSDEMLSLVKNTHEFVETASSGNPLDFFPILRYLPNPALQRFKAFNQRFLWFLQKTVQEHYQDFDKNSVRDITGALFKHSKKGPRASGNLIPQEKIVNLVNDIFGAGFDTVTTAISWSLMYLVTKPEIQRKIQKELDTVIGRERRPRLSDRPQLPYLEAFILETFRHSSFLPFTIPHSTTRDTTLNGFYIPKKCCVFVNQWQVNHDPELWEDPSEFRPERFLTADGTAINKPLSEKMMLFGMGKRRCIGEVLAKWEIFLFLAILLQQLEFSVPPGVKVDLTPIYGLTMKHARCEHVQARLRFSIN

[11] = target: Voltage-gated inwardly rectifying potassium channel KCNH2 (Homo sapiens, UniProt Q12809); conditions: Potency;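 also: confirmatory quantitative high-throughput screen measuring inhibition of hERG channel activity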
Sequence of Voltage-gated inwardly rectifying potassium channel KCNH2 (Q12809 whole entry): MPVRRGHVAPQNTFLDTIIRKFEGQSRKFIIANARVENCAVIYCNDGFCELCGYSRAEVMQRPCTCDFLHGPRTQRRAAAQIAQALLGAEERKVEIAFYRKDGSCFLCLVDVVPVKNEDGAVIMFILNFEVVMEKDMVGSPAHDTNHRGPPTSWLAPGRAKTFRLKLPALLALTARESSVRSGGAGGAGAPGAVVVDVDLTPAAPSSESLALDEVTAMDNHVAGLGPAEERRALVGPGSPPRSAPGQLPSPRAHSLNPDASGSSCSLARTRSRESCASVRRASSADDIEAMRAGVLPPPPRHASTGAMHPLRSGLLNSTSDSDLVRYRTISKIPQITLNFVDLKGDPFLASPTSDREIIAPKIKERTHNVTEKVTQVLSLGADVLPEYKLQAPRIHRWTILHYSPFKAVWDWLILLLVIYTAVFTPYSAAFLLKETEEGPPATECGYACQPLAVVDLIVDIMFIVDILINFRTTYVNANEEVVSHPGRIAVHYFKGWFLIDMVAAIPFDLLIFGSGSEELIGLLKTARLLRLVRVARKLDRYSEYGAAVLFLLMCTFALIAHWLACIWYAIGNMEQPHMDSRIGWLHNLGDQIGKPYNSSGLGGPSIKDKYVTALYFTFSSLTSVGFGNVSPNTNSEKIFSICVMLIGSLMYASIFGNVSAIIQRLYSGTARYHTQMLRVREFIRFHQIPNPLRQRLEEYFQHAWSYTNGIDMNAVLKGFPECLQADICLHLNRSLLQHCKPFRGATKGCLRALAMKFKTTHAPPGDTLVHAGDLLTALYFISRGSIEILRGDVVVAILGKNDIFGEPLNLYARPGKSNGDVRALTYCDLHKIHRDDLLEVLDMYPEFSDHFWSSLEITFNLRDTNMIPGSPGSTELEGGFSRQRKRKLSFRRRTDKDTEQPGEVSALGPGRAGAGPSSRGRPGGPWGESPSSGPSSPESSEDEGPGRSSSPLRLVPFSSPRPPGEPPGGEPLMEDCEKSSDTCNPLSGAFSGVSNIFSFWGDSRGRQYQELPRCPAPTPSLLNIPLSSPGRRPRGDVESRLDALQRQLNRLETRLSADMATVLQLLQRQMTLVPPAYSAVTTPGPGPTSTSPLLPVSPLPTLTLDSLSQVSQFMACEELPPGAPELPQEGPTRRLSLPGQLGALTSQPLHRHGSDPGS

Sequence of G-protein coupled receptor 55 (Q9Y2T6 whole entry, the tested form may be a part): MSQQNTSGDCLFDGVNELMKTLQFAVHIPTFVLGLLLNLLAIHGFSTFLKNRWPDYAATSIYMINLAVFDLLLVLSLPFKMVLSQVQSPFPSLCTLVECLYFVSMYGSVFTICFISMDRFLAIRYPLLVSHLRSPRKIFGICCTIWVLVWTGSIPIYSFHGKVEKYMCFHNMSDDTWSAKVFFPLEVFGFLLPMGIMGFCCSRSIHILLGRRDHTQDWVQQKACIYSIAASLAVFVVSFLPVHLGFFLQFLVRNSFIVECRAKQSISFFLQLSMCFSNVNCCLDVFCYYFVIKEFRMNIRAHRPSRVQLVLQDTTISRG

IC50 [1]: > 32 µM (inactive)
Structure (SMILES): COc1ccc(Cn2c(SCC(=O)Nc3ccc(C)c(C)c3)nc3ccsc3c2=O)cc1

IC50 [2]: 62.4 µM (inactive) | IC50 [3]: 7.53 µM (active)
Structure (SMILES): O=C(O)CCSc1cc(NS(=O)(=O)c2ccccc2)c2ccccc2c1O

IC50 [4]: > 80 µM (inactive) | IC50 [5]: > 80 µM (inactive)
Structure (SMILES): Cc1ccccc1N1C(=O)c2ccccc2C1Nc1ccc(Cl)cc1 (stereo unspecified)

EC50 [6]: > 100 µM (inactive) | EC50 [7]: 10 µM (active) | EC50 [8]: 9.87 µM (active) | EC50 [9]: 8.19 µM (active)
Structure (SMILES): O=C(CCCCC(=O)NNC(=O)COc1ccccc1)NNC(=O)COc1ccccc1

AC50 [10]: 31.6 µM (inconclusive)
Structure (SMILES): CC(=O)N[C@@H](Cc1c[nH]c2ccccc12)C(=O)OCc1cc(C(F)(F)F)cc(C(F)(F)F)c1 [L-732138]
AC50 [11]: 12.6 µM (inconclusive)
